Test results published in patent publication US20190315823A1, “SMALL CATIONIC ANTI-BIOFILM AND IDR PEPTIDES” (priority 2013, published 2019).
Ends that are not written are not given here.

Test system: methicillin resistant Staphylococcus aureus (MRSA) biofilm
Experiment: not given
Settings: approximate peptide concentration […] (around 3 μg/ml); compared to untreated samples
Method: Methods of assessment of anti-biofilm activity—Biofilm formation was initially analyzed using a static abiotic solid surface assay as described elsewhere (de la Fuente-Nunez et al., 2012). Dilutions (1/100) of overnight cultures were incubated in BM2 biofilm-adjusted medium [62 mM potassium phosphate buffer (pH 7), 7 mM (NH4)2SO4, 2 mM MgSO4, 10 μM FeSO4, 0.4% (wt/vol) glucose, 0.5% (wt/vol) Casamino Acids], or a nutrient medium such as Luria Broth, in polypropylene microtiter plates (Falcon, United States) in the absence (control) or presence of peptide. Peptide was added at time zero (prior to adding the diluted, overnight cultures) in varying concentrations, and the decrease in biofilm formation was recorded at 22-46 h for most bacteria. Planktonic cells were removed, biofilm cells adhering to the side of the tubes were stained with crystal violet, and absorbance at 595 nm was measured using a microtiter plate reader (Bio-Tek Instruments Inc., United States). Some peptides were screened against two Gram negative organisms, P. aeruginosa and K. pneumoniae using a Bioflux apparatus (AutoMate Scientific, Berkeley, Calif.; http://www.autom8.com/bioflux_biofilm.html), which allows for the high-throughput, real-time analysis of biofilms.

Substance | % Biofilm inhibition [%]
HH2-A9: single substituted HH2 peptide (VQLRIRVAAIRA-NH2) | 51
1002-V12: single substituted 1002 peptide (VQRWLIVWRIRV-NH2) [Peptide 1002-V12] | 67
1018-W12: single substituted 1018 peptide (VRLIVAVRIWRW-NH2) [Peptide 1018-W12] | 65
HH2-A2: single substituted HH2 peptide (VALRIRVAVIRA-NH2) | 69
1002-I7: single substituted 1002 peptide (VQRWLIIWRIRK-NH2) [Peptide 1002-I7] | 73
1018-A9: single substituted 1018 peptide (VRLIVAVRAWRR-NH2) [Peptide 1018-A9] | 49
HH2-L5: single substituted HH2 peptide (VQLRLRVAVIRA-NH2) | 58
1018-R3: single substituted 1018 peptide (VRRIVAVRIWRR-NH2) [Peptide 1018-R3] | 29
1002-L1: single substituted 1002 peptide (LQRWLIVWRIRK-NH2) [Peptide 1002-L1] | 69
1018-W3: single substituted 1018 peptide (VRWIVAVRIWRR-NH2) [Peptide 1018-W3] | 66
1018-A11: single substituted 1018 peptide (VRLIVAVRIWAR-NH2) [Peptide 1018-A11] | 59
1018-V10: single substituted 1018 peptide (VRLIVAVRIVRR-NH2) [Peptide 1018-V10] | 50
HH2-L9: single substituted HH2 peptide (VQLRIRVALIRA-NH2) | 65

Test system: human peripheral blood mononuclear cells (MCP-1)
Experiment: SPOT-synthesized derivative screen: production of chemokine MCP-1
Format: cell-based
Settings: Table 12; No LPS; human PBMC, peptide at ~18-24 μM
Method: Venous blood (20 ml) from healthy volunteers was collected in Vacutainer® collection tubes containing sodium heparin as an anticoagulant (Becton Dickinson, Mississauga, ON) in accordance with UBC ethical approval and guidelines. Blood was diluted 1:1 with complete RPMI 1640 medium and separated by centrifugation over a Ficoll-Paque® Plus (Amersham Biosciences, Piscataway, N.J., USA) density gradient. White blood cells were isolated from the buffy coat, washed twice in RPMI 1640 complete medium, and the number of peripheral blood mononuclear cells (PBMC) was determined by Trypan blue exclusion. PBMC (5×10^5) were seeded into 12-well tissue culture dishes (Falcon; Becton Dickinson) at 0.75 to 1×10^6 cells/ml at 37° C. in 5% CO2. The above conditions were chosen to mimic conditions for circulating blood monocytes entering tissues at the site of infection via extravasation.
Following incubation of the cells under various treatment regimens, the tissue culture supernatants were centrifuged at 1000×g for 5 min, then at 10,000×g for 2 min to obtain cell-free samples. Supernatants were aliquoted and then stored at −20° C. prior to assay for various chemokines by capture ELISA (eBioscience and BioSource International Inc., CA, USA respectively)

Substance | Fold increase in MCP1 cf. untreated cells
HH2-A9: single substituted HH2 peptide (VQLRIRVAAIRA-NH2) | 1.9
1002-V12: single substituted 1002 peptide (VQRWLIVWRIRV-NH2) [Peptide 1002-V12] | 1.3
1018-W12: single substituted 1018 peptide (VRLIVAVRIWRW-NH2) [Peptide 1018-W12] | 1.5
HH2-A2: single substituted HH2 peptide (VALRIRVAVIRA-NH2) | 3.8
1002-I7: single substituted 1002 peptide (VQRWLIIWRIRK-NH2) [Peptide 1002-I7] | 3.3
1018-A9: single substituted 1018 peptide (VRLIVAVRAWRR-NH2) [Peptide 1018-A9] | 0.5
HH2-L5: single substituted HH2 peptide (VQLRLRVAVIRA-NH2) | 1.6
1018-R3: single substituted 1018 peptide (VRRIVAVRIWRR-NH2) [Peptide 1018-R3] | 3.0
1002-L1: single substituted 1002 peptide (LQRWLIVWRIRK-NH2) [Peptide 1002-L1] | 13.3
1018-W3: single substituted 1018 peptide (VRWIVAVRIWRR-NH2) [Peptide 1018-W3] | 6.6
1018-A11: single substituted 1018 peptide (VRLIVAVRIWAR-NH2) [Peptide 1018-A11] | 0.6
1018-V10: single substituted 1018 peptide (VRLIVAVRIVRR-NH2) [Peptide 1018-V10] | 1.2
HH2-L9: single substituted HH2 peptide (VQLRIRVALIRA-NH2) | 10

Same assay, conditions: Table 12; No LPS; human PBMC, peptide at ~18-24 μM; background subtracted 139 (HH2 derivatives), 170 (1018 derivatives), 242 (1002 and hybrid peptides) pg/ml

Substance | MCP1 [pg/mL]
HH2-A9: single substituted HH2 peptide (VQLRIRVAAIRA-NH2) | 157
1002-V12: single substituted 1002 peptide (VQRWLIVWRIRV-NH2) [Peptide 1002-V12] | 76.4
1018-W12: single substituted 1018 peptide (VRLIVAVRIWRW-NH2) [Peptide 1018-W12] | 79
HH2-A2: single substituted HH2 peptide (VALRIRVAVIRA-NH2) | 471
1002-I7: single substituted 1002 peptide (VQRWLIIWRIRK-NH2) [Peptide 1002-I7] | 557.5
1018-A9: single substituted 1018 peptide (VRLIVAVRAWRR-NH2) [Peptide 1018-A9] | -88
HH2-L5: single substituted HH2 peptide (VQLRLRVAVIRA-NH2) | 97
1018-R3: single substituted 1018 peptide (VRRIVAVRIWRR-NH2) [Peptide 1018-R3] | 349
1002-L1: single substituted 1002 peptide (LQRWLIVWRIRK-NH2) [Peptide 1002-L1] | 2988.6
1018-W3: single substituted 1018 peptide (VRWIVAVRIWRR-NH2) [Peptide 1018-W3] | 953
1018-A11: single substituted 1018 peptide (VRLIVAVRIWAR-NH2) [Peptide 1018-A11] | -65
1018-V10: single substituted 1018 peptide (VRLIVAVRIVRR-NH2) [Peptide 1018-V10] | 29
HH2-L9: single substituted HH2 peptide (VQLRIRVALIRA-NH2) | 1527

Test system: LPS-stimulated human peripheral blood mononuclear cells (IL1-β)
Experiment: not given
Format: cell-based
Settings: Table 12; cells stimulated with 10 ng/ml LPS
Method: LPS from P. aeruginosa strain H103 was highly purified free of proteins and lipids using the Darveau-Hancock method. Briefly, P. aeruginosa was grown overnight in LB broth at 37° C. Cells were collected and washed and the isolated LPS pellets were extracted with a 2:1 chloroform:methanol solution to remove contaminating lipids. Purified LPS samples were quantitated using an assay for the specific sugar 2-keto-3-deoxyoctosonic acid (KDO assay) and then resuspended in endotoxin-free water (Sigma-Aldrich).

Substance | Fold change in IL1β relative to no peptide LPS stimulated cells
HH2-A9: single substituted HH2 peptide (VQLRIRVAAIRA-NH2) | 1.46
1002-V12: single substituted 1002 peptide (VQRWLIVWRIRV-NH2) [Peptide 1002-V12] | 0.05
1018-W12: single substituted 1018 peptide (VRLIVAVRIWRW-NH2) [Peptide 1018-W12] | 0.34
HH2-A2: single substituted HH2 peptide (VALRIRVAVIRA-NH2) | 1.23
1002-I7: single substituted 1002 peptide (VQRWLIIWRIRK-NH2) [Peptide 1002-I7] | 0.05
1018-A9: single substituted 1018 peptide (VRLIVAVRAWRR-NH2) [Peptide 1018-A9] | 0.90
HH2-L5: single substituted HH2 peptide (VQLRLRVAVIRA-NH2) | 0.88
1018-R3: single substituted 1018 peptide (VRRIVAVRIWRR-NH2) [Peptide 1018-R3] | 1.25
1002-L1: single substituted 1002 peptide (LQRWLIVWRIRK-NH2) [Peptide 1002-L1] | 0.05
1018-W3: single substituted 1018 peptide (VRWIVAVRIWRR-NH2) [Peptide 1018-W3] | 0.10
1018-A11: single substituted 1018 peptide (VRLIVAVRIWAR-NH2) [Peptide 1018-A11] | 0.87
1018-V10: single substituted 1018 peptide (VRLIVAVRIVRR-NH2) [Peptide 1018-V10] | 0.28
HH2-L9: single substituted HH2 peptide (VQLRIRVALIRA-NH2) | 1.04

Same assay, conditions: Table 12; cells stimulated with 10 ng/ml LPS; LPS alone 1313 (HH2 derivatives), 1927 (1018 derivatives), 2455 (1002 and hybrid peptides) pg/ml

Substance | IL1β Production [pg/mL]
HH2-A9: single substituted HH2 peptide (VQLRIRVAAIRA-NH2) | 1923
1002-V12: single substituted 1002 peptide (VQRWLIVWRIRV-NH2) [Peptide 1002-V12] | 127
1018-W12: single substituted 1018 peptide (VRLIVAVRIWRW-NH2) [Peptide 1018-W12] | 441
HH2-A2: single substituted HH2 peptide (VALRIRVAVIRA-NH2) | 1612
1002-I7: single substituted 1002 peptide (VQRWLIIWRIRK-NH2) [Peptide 1002-I7] | 127
1018-A9: single substituted 1018 peptide (VRLIVAVRAWRR-NH2) [Peptide 1018-A9] | 1176
HH2-L5: single substituted HH2 peptide (VQLRLRVAVIRA-NH2) | 1156
1018-R3: single substituted 1018 peptide (VRRIVAVRIWRR-NH2) [Peptide 1018-R3] | 1636
1002-L1: single substituted 1002 peptide (LQRWLIVWRIRK-NH2) [Peptide 1002-L1] | 127
1018-W3: single substituted 1018 peptide (VRWIVAVRIWRR-NH2) [Peptide 1018-W3] | 127
1018-A11: single substituted 1018 peptide (VRLIVAVRIWAR-NH2) [Peptide 1018-A11] | 1148
1018-V10: single substituted 1018 peptide (VRLIVAVRIVRR-NH2) [Peptide 1018-V10] | 370
HH2-L9: single substituted HH2 peptide (VQLRIRVALIRA-NH2) | 1359
